# Counter-ions that a name gives are not always drawn.
# Legend:
# Type in all cases: physicochemical
# [1] = salt screen for suitable crystalline properties; conditions: salt of compound (I′)
# Protocol: Again using compound (I′), the following salt species were prepared and screened for the presence of suitable crystalline properties. […] The olamine salt was recovered as an oil. The meglumine salt material was determined to be amorphous. Both the benzathine (mono) and benzathine (bis) salts were also determined to be amorphous. Crystalline solids could also not be prepared for the L-arginine, L-lysine, calcium, potassium, and magnesium salts.
# [2] = hygroscopicity: weight gain at 87% RH; conditions: for weight gain (hygroscopicity): after 72 hours at 87% RH
# Protocol: Polymorph A has an X-ray powder diffraction pattern that is unique to the form as previously described (FIG. 1). Upon microscopic examination, crystals appear as small needles and aggregates thereof, but which are not reliably distinguished from those of polymorph B (FIG. 2). By fusion microscopy, polymorph A is determined to commence melting at about 144° C., with no recrystallization noted upon further temperature increases. […] (FIG. 5).
# [3] = equilibration of forms under ambient conditions (relative energy)
# Description: As evaluated by equilibration of the polymorphs (A and B) under ambient conditions, polyporph A is the lower energy form.
# [4] = comparison of forms: thermal stability
# [5] = solid-state storage stability in sealed dark glass bottle under nitrogen; conditions: sealed dark colored glass bottle, under nitrogen gas
# Description: However, polymorph B may be stably stored in solid form. If placed in a sealed dark colored glass bottle, under nitrogen gas, polymorph B crystals are stable for at least 6 weeks.
# (§1) Examples of suitable solvent include ethyl acetate: hexanes 1:5.
# [6] = conversion (bridging) to polymorph A in solvent
# Protocol: Polymorph B crystals may also be converted back to polymorph A crystals by placement in a solvent in which the B form is very slightly soluble, such as n-hexanes. Over a period of time (for example, no more than 18 hours) crystals of polymorph A will develop. Prolonged granulation (for example 18 hours) even when conducted at 5° C. will also effect conversion to polymorph A.
# as §1
# [7] = comparison of forms: solubility in aqueous solvents; conditions: polymorph B versus polymorph A; salt versus all other known forms
# [8] = equilibrium solubility determined during polymorph screen; conditions: thermodynamic from solid; pH 7 water, four days at ambient temperature
# Protocol: Using the microscopy methods described by Haleblaine and McCrone, Journal of Pharmaceutical Sciences, 58(8), pp. 911-929, 1969, a polymorph screen was conducted for the ethylene diamine (mono) salt of compound (I). No polymorphs were observed. A more extensive polymorph screen was run on the (mono) salt of compound (I′), involving 31 isolations, and again no polymorphs were observed. During the polymorph screen, an equilibrium solubility for the ethylene diamine (mono) salt of compound (I) was determined. After maintaining a sample for four days at ambient temperature, an equilibrium solubility value of approximately 4 mg/ml was determined, in pH 7 water. Additionally, the ethylene diamine (bis) salt was not observed in these studies.
compound,measurement,setting,value
"O=C(O)c1ccc(C(F)(F)F)cc1-c1ccc2c(c1)OC[C@@H](Cc1ccccc1)[C@@H]2O [sodium salt, (3R-trans)-2-[3,4-dihydro-4-hydroxy-3-(phenylmethyl)-2H-1-benzopyran-7-yl]-4-(trifluoromethyl)-benzioc acid]",hygroscopicity of salt,[1],"hygroscopic, becoming an oil"
"O=C(O)c1ccc(C(F)(F)F)cc1-c1ccc2c(c1)OC[C@H](Cc1ccccc1)[C@H]2O [Polymorph A, (3S-trans)-2-[3,4-dihydro-4-hydroxy-3-(phenylmethyl)-2H-1-benzopyran-7-yl]-4-(trifluoromethyl)-benzoic acid]",hygroscopicity in words,"[2]; 87% RH, ambient temperature",substantially non-hygroscopic
same,weight gain (hygroscopicity),[2]; again at ambient temperature (second value stated),0.36%
same,weight gain (hygroscopicity),[2]; ambient temperature (first value stated),0.2%
same,relative energy of the crystal form,[3],lowest energy form
same,thermal stability relative to all other known forms of compound (I),[4],greater thermal stability
"O=C(O)c1ccc(C(F)(F)F)cc1-c1ccc2c(c1)OC[C@H](Cc1ccccc1)[C@H]2O [polymorph B, (3S-trans)-2-[3,4-dihydro-4-hydroxy-3-(phenylmethyl)-2H-1-benzopyran-7-yl]-4-(trifluoromethyl)-benzoic acid]",time stable in solid form,[5],at least 6 weeks
same,time for conversion to polymorph A,"[6]; in a solvent in which the B form is very slightly soluble, such as n-hexanes",no more than 18 hours
same,solubility in aqueous solvents relative to other forms,[7],greater solubility in aqeuous solvents
"O=C(O)c1ccc(C(F)(F)F)cc1-c1ccc2c(c1)OC[C@H](Cc1ccccc1)[C@H]2O [(3S-trans)-2-[3,4-dihydro-4-hydroxy-3-(phenylmethyl)-2H-1-benzopyran-7-yl]-4-(trifluoromethyl)-benzoic acid]",solubility thermodynamic at 4 days,[8],~4000 µg/mL
same,solubility in aqueous solvents relative to other forms,[7],greater solubility in aqeuous solvents
"O=C(O)c1ccc(C(F)(F)F)cc1-c1ccc2c(c1)OC[C@H](Cc1ccccc1)[C@H]2O [monohydrate, (3S-trans)-2-[3,4-dihydro-4-hydroxy-3-(phenylmethyl)-2H-1-benzopyran-7-yl]-4-(trifluoromethyl)-benzoic acid]",time stable in solid form,[5],at least six weeks
same,bridging to polymorph A,[6]; hexanes alone,no bridging occurs
same,bridging to polymorph A,"[6]; solvents with some minimal solubility, e.g. ethyl acetate: hexanes 1:5",readily bridges to polymorph A
same,relative energy of the crystal form,[3],higher in energy than polymorph A

# From patent US6436987B1, “Crystalline forms of (3S-trans)-2-[3,4-dihydro-4-hydroxy-3-(phenylmethyl)-2H-1-benzopyran-7-yl]-4-(trifluoromethyl)-benzoic acid” (Pfizer Inc., priority 2000, dated 2002)
